From ChEMBL document CHEMBL1201862, “PubChem BioAssay data set” (2004)
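Interpolation was linear, between the two tested concentrations surrounding the appropriate level; five concentrations were tested over 48 hours in 96-well plates. GI50 = concentration required for 50% inhibition of growth.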 Active and inactive are the calls of the source. No stated cut-off is given here; in the data, active = GI50 up to about 1.1 µM and inactive = higher.

Key:
Experiment in all cases: NCI anticancer screen, dose series, 48 h
786-0 = system: 786-0
SF-268 = system: SF-268
CCRF-CEM = system: CCRF-CEM
IGROV-1 = system: IGROV-1
BT-549 = system: BT-549
SW-620 = system: SW-620
ACHN = system: ACHN
SK-OV-3 = system: SK-OV-3
SN12C = system: SN12C
K562 = system: K562
OVCAR-8 = system: OVCAR-8
CAKI-1 = system: CAKI-1
MOLT-4 = system: MOLT-4
OVCAR-5 = system: OVCAR-5
HT-29 = system: HT-29
OVCAR-4 = system: OVCAR-4
UACC-257 = system: UACC-257
NCI-H226 = system: NCI-H226
HOP-62 = system: HOP-62
RXF 393 = system: RXF 393
NCI-H460 = system: NCI-H460
A549 = system: A549
SK-MEL-5 = system: SK-MEL-5
UACC-62 = system: UACC-62
MDA-MB-231 = system: MDA-MB-231
SR = system: SR
M14 = system: M14
NCI/ADR-RES = system: NCI/ADR-RES
OVCAR-3 = system: OVCAR-3
HCC 2998 = system: HCC 2998
MDA-N = system: MDA-N
PC-3 = system: PC-3
RPMI-8226 = system: RPMI-8226
SNB-75 = system: SNB-75
SF-539 = system: SF-539
HCT-116 = system: HCT-116
COLO 205 = system: COLO 205
EKVX = system: EKVX
SNB-19 = system: SNB-19
NCI-H522 = system: NCI-H522
SK-MEL-2 = system: SK-MEL-2
Hs-578T = system: Hs-578T
KM12 = system: KM12
HCT-15 = system: HCT-15
MDA-MB-435 = system: MDA-MB-435
SF-295 = system: SF-295
UO-31 = system: UO-31
HOP-92 = system: HOP-92
MCF7 = system: MCF7
U-251 = system: U-251
DU-145 = system: DU-145
NCI-H23 = system: NCI-H23
SK-MEL-28 = system: SK-MEL-28
A498 = system: A498
T47D = system: T47D
TK-10 = system: TK-10

For `NC(CCC(=O)NC(CSC(=O)N(O)c1ccc(Cl)cc1)C(=O)NCC(=O)O)C(=O)O` (stereo unspecified), the GI50 (786-0) was > 0.5 µM (active), the GI50 (SF-268) was > 0.5 µM (active) and the GI50 (CCRF-CEM) was > 0.5 µM (active). For the same molecule, the GI50 (IGROV-1) was > 0.5 µM (active), the GI50 (BT-549) was > 0.5 µM (active) and the GI50 (SW-620) was > 0.5 µM (active). The GI50 (ACHN) was > 0.5 µM (active), the GI50 (SK-OV-3) was > 0.5 µM (active) and the GI50 (SN12C) was > 0.5 µM (active). For the same molecule, the GI50 (K562) was > 0.5 µM (active), the GI50 (OVCAR-8) was > 0.5 µM (active) and the GI50 (CAKI-1) was > 0.5 µM (active). For the same molecule, the GI50 (MOLT-4) was > 0.5 µM (active), the GI50 (OVCAR-5) was > 0.5 µM (active) and the GI50 (HT-29) was > 0.5 µM (active). The GI50 (OVCAR-4) was > 0.5 µM (active), the GI50 (UACC-257) was > 0.5 µM (active) and the GI50 (NCI-H226) was > 0.5 µM (active). The GI50 (HOP-62) was > 0.5 µM (active), the GI50 (RXF 393) was > 0.5 µM (active) and the GI50 (NCI-H460) was > 0.5 µM (active). For the same molecule, the GI50 (A549) was > 0.5 µM (active), the GI50 (SK-MEL-5) was > 0.5 µM (active) and the GI50 (UACC-62) was > 0.5 µM (active). The GI50 (MDA-MB-231) was > 0.5 µM (active), the GI50 (SR) was > 0.5 µM (active) and the GI50 (M14) was > 0.5 µM (active). The GI50 (NCI/ADR-RES) was > 0.5 µM (active), the GI50 (OVCAR-3) was > 0.5 µM (active) and the GI50 (HCC 2998) was > 0.5 µM (active). For the same molecule, the GI50 (MDA-N) was > 0.5 µM (active), the GI50 (PC-3) was > 0.5 µM (active) and the GI50 (RPMI-8226) was > 0.5 µM (active). For the same molecule, the GI50 (SNB-75) was > 0.5 µM (active), the GI50 (SF-539) was > 0.5 µM (active) and the GI50 (HCT-116) was > 0.5 µM (active). The GI50 (COLO 205) was > 0.5 µM (active), the GI50 (EKVX) was > 0.5 µM (active) and the GI50 (SNB-19) was > 0.5 µM (active). The GI50 (NCI-H522) was > 0.5 µM (active), the GI50 (SK-MEL-2) was > 0.5 µM (active) and the GI50 (Hs-578T) was > 0.5 µM (active). For the same molecule, the GI50 (KM12) was > 0.5 µM (active), the GI50 (HCT-15) was > 0.5 µM and the GI50 (MDA-MB-435) was > 0.5 µM (active). For the same molecule, the GI50 (SF-295) was > 0.5 µM (active), the GI50 (UO-31) was > 0.5 µM (active) and the GI50 (HOP-92) was > 0.5 µM (active). The GI50 (MCF7) was > 0.5 µM (active), the GI50 (U-251) was > 0.5 µM (active) and the GI50 (DU-145) was > 0.5 µM (active). For the same molecule, the GI50 (NCI-H23) was > 0.5 µM (active) and the GI50 (SK-MEL-28) was > 0.5 µM (active).

`COc1ccc2c(c1)C(N)CC2=O` (stereo unspecified) was tested, and the GI50 (786-0) was > 100 µM (inactive), the GI50 (SF-268) was > 100 µM (inactive) and the GI50 (CCRF-CEM) was > 100 µM (inactive). The GI50 (IGROV-1) was > 100 µM (inactive), the GI50 (BT-549) was > 100 µM (inactive) and the GI50 (SW-620) was > 100 µM (inactive). For the same molecule, the GI50 (ACHN) was > 100 µM (inactive), the GI50 (SK-OV-3) was > 100 µM (inactive) and the GI50 (SN12C) was > 100 µM (inactive). The GI50 (A498) was > 100 µM (inactive), the GI50 (K562) was > 100 µM (inactive) and the GI50 (OVCAR-8) was > 100 µM (inactive). The GI50 (CAKI-1) was > 100 µM (inactive), the GI50 (MOLT-4) was > 100 µM (inactive) and the GI50 (OVCAR-5) was > 100 µM (inactive). The GI50 (HT-29) was > 100 µM (inactive), the GI50 (OVCAR-4) was > 100 µM (inactive) and the GI50 (UACC-257) was > 100 µM (inactive). For the same molecule, the GI50 (NCI-H226) was > 100 µM (inactive), the GI50 (HOP-62) was > 100 µM (inactive) and the GI50 (RXF 393) was 19 µM (inactive). The GI50 (A549) was 19.1 µM (inactive), the GI50 (SK-MEL-5) was > 100 µM (inactive) and the GI50 (UACC-62) was > 100 µM (inactive). For the same molecule, the GI50 (MDA-MB-231) was > 100 µM (inactive), the GI50 (M14) was > 100 µM (inactive) and the GI50 (NCI/ADR-RES) was > 100 µM (inactive). The GI50 (OVCAR-3) was > 100 µM (inactive), the GI50 (HCC 2998) was > 100 µM (inactive) and the GI50 (PC-3) was 18.9 µM (inactive). For the same molecule, the GI50 (RPMI-8226) was > 100 µM (inactive), the GI50 (SNB-75) was > 100 µM (inactive) and the GI50 (SF-539) was > 100 µM (inactive). For the same molecule, the GI50 (HCT-116) was > 100 µM (inactive), the GI50 (COLO 205) was > 100 µM (inactive) and the GI50 (EKVX) was > 100 µM (inactive). The GI50 (SNB-19) was > 100 µM (inactive), the GI50 (NCI-H522) was > 100 µM (inactive) and the GI50 (SK-MEL-2) was 27 µM (inactive). For the same molecule, the GI50 (T47D) was > 100 µM (inactive), the GI50 (Hs-578T) was > 100 µM (inactive) and the GI50 (KM12) was > 100 µM (inactive). For the same molecule, the GI50 (HCT-15) was > 100 µM, the GI50 (MDA-MB-435) was > 100 µM (inactive) and the GI50 (TK-10) was > 100 µM (inactive). For the same molecule, the GI50 (SF-295) was > 100 µM (inactive), the GI50 (UO-31) was > 100 µM (inactive) and the GI50 (HOP-92) was > 100 µM (inactive). For the same molecule, the GI50 (MCF7) was > 100 µM (inactive), the GI50 (U-251) was > 100 µM (inactive) and the GI50 (DU-145) was > 100 µM (inactive). The GI50 (NCI-H23) was > 100 µM (inactive) and the GI50 (SK-MEL-28) was > 100 µM (inactive).
